Structures can show the parent of a compound that is named as a salt.
B1: rhDNase: recombinant human DNase, an enzyme that breaks down extracellular DNA in mucus (protein, UniProt P24855 23-282, looked up)
Deoxyribonuclease-1: LKIAAFNIQTFGETKMSNATLVSYIVQILSRYDIALVQEVRDSHLTAVGKLLDNLNQDAPDTYHYVVSEPLGRNSYKERYLFVYRPDQVSAVDSYYYDDGCEPCGNDTFNREPAIVRFFSRFTEVREFAIVPLHAAPGDAVAEIDALYDVYLDVQEKWGLEDVMLMGDFNAGCSYVRPSQWSSIRLWTSPTFQWLIPDSADTTATPTHCAYDRIVVAGMLLRGAVVPDSALPFNFQAAYGLSDQLAQAISDHYPVEVMLK

What was measured:
[1] = system: porcine airway; experiment: Ex vivo porcine airway models (summary statement)
Excerpt: Abnormal mucus accumulation in airways has deleterious, and fatal consequence in patients suffering from respiratory obstructive diseases, such as cystic fibrosis (CF), COPD and asthma. Therefore, there is a need for therapies aimed at decreasing mucus accumulation to facilitate airway mucus clearance.

[2] = system: secreted Muc5ac mucin; experiment: Mucolytic activity on secreted Muc5ac mucin of open porcine trachea sections (western blot); conditions: for breaking down the mucus (secreted Muc5ac western blot) / native Muc5ac levels on epithelial luminal surfaces (immunoblot): 2 mM; for breaking down the mucus (secreted Muc5ac western blot): 5 minutes at 37° C., then 7% NaCl inhaled solution 5 mins, FIG. 19; for native Muc5ac levels on epithelial luminal surfaces (immunoblot): HCO3-Ringer with PGE2 (1 uM), 10 minutes at 37° C., FIG. 18
Protocol: FIG. 18 provides the mucolytic activity of compounds on secreted Muc5ac mucin. Epithelial luminal surface of open porcine trachea sections (˜2 cm^2) were covered with HCO3-Ringer solution ([…]) containing PGE2 (1 uM), and alcian blue (0.02%), with or without compounds at a 2 mM final concentration, and incubated for 10 minutes at 37° C. Equal volumes of each collected sample were separated on vertical electrophoresis, and then transfer to an immobilon-P membrane for western blot analysis. […] Densitometric signal of the untreated sample, as control, was normalized to 100% (% arbitrary units).
Epithelial luminal surface of open porcine trachea sections (˜2 cm^2) were covered with […] of HCO3-Ringer solution containing PGE2 (1 uM), in the presence or absence of compounds at a 2 mM final concentration, and incubated for 5 minutes at 37° C. Afterwards, […] of sterile 7% NaCl inhaled solution was added and incubated for another 5 mins at 37° C. Equal volumes of each collected sample were separated on vertical electrophoresis, and then transferred to an immobilon-P membrane for western blot analysis. […] Densitometric signal of the non-treated sample, as control, was normalized to 100% (% arbitrary units).

[3] = system: respiratory secreted mucus; experiment: Mucolytic activity on respiratory secreted mucus of open porcine trachea sections (alcian blue); conditions: 2 mM, HCO3-Ringer with PGE2 (1 uM) and alcian blue (0.02%), 10 minutes at 37° C., untreated showed clusters of secreted mucus
Protocol: FIG. 16 provides the mucolytic activity of compounds 646 and 647 on respiratory secreted mucus. Small sections of open porcine trachea (˜2 cm^2) were covered with HCO3-Ringer solution ([…]) containing PGE2 (1 uM) and alcian blue (0.02%), with or without compounds at a 2 mM final concentration, and then incubated for 10 minutes at 37° C.
FIG. 17 provides the mucolytic activity of compounds 655 and 656 on respiratory secreted mucus. Small sections of open porcine trachea (˜2 cm^2) were covered with HCO3-Ringer solution ([…]) containing PGE2 (1 uM) and alcian blue (0.02%), with or without compounds at a 2 mM final concentration, and then incubated for 10 minutes at 37° C.

[4] = system: Muc5ac mucin from porcine airway mucus; experiment: Mucolytic effect on Muc5ac mucin from porcine airway mucus (western blot, densitometry); type: biochemical; conditions: 2 mM, 30 mins at 37° C.; compound preincubated in HCO3-Ringer, HCO3-Ringer/acetic acid or acetate buffer pH 4.5
Protocol: (§1) (Upper panel) Identification of Muc5ac mucin (black arrow) by western blot, from airway mucus sample collected in HCO3-Ringer and treated with or without 2 mM of compound 646 for 30 mins at 37° C. Lane CTRL, untreated sample as control. Lane Bic, sample treated with compound preincubated in HCO3-Ringer; lane Bic/Ac, sample treated with compound preincubated with 1:1 HCO3-Ringer/Acetic acid 0.1N; lane Ac, sample treated with compound preincubated in acetate buffer 1M, pH 4.5. Lower panel, densitometric analysis of the protein bands identified with the Muc5ac mucin antibody. Densitometric signal of the sample control (CTRL) was normalized as 100% (% arbitrary units).
as §1, with “647” for “646”, “4.5, as described under Methods.” for “4.5.”, “units). Control is pH 8, Bic 7.4, Bic/AC 6.9 AND AC 6.2” for “units).”
as §1, with “655” for “646”
as §1, with “compounds 656” for “compound 646”

[5] = cited from earlier work

Row | Molecule | accumulation of viscous mucus and mucociliary clearance [1] | native Muc5ac levels on epithelial luminal surfaces (immunoblot) [2] | influence of acidic and basic conditions on mucolytic activity on porcine Muc5ac mucin [4] | also measured
1 | [2H]C(CN)SSC([2H])CN (stereo not drawn) [Compound 647, 2,2′-disulfanediylbis(ethan-2-d-1-amine) dihydrochloride] | prevented accumulation of viscous mucus and improves mucociliary clearance | decreased native Muc5ac levels | enhanced under acidic conditions | breaking down the mucus (secreted Muc5ac western blot) [2]: consistently works well in breaking down the mucus; appearance of secreted mucus on trachea sections ([3]; dihydrochloride): dispersed clusters of secreted mucus
2 | Cl.Cl.[2H]C([2H])(CN)SSC([2H])([2H])CN [Compound 655, 2,2′-disulfanediylbis(ethan-2,2-d2-1-aminium) chloride] | prevented accumulation of viscous mucus and improves mucociliary clearance | decreased native Muc5ac levels | enhanced under acidic conditions | breaking down the mucus (secreted Muc5ac western blot) [2]: consistently works well in breaking down the mucus; mucolytic activity in comparison ([2]; comparison between deuterated cystamine compounds): better mucolytic activity than Compound 647; appearance of secreted mucus on trachea sections [3]: dispersed secreted mucus
3 | Cl.[2H]C([2H])(S)CN [Compound 656, 2-mercaptoethan-2,2-d2-1-aminium chloride] | prevented accumulation of viscous mucus and improves mucociliary clearance | decreased native Muc5ac levels | enhanced under acidic conditions | appearance of secreted mucus on trachea sections [3]: dispersed secreted mucus
4 | CC(C)(C)c1cc(C(C)(C)C)c(NC(=O)c2c[nH]c3ccccc3c2=O)cc1O [Ivacaftor, reference compound] |  |  |  | improvement of lung function ([5]; taken by mouth, CF with ivacaftor-responsive mutations): about 10%
5 | CC(=O)N[C@@H](CS)C(=O)O [NAC, N-acetylcysteine, reference compound] |  |  |  | efficacy with respect to improvement of lung function or reduction in pulmonary exacerbations ([5]; inhaled, CF and COPD): do not support the efficacy
6 | NCCSSCCN [cystamine, reference compound] | prevented accumulation of viscous mucus and improves mucociliary clearance |  |  | 
7 | B1 |  |  |  | clinical benefit ([5]; inhaled, adult CF subjects): substantial clinical benefits; efficacy ([5]; obstructive diseases other than CF): ineffective
